Test results published in PubChem BioAssay (NCI).
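In this assay, cells in 96-well plates receive the compound at five concentrations for 48 hours. Endpoints are linearly interpolated between the surrounding concentrations. Abbreviation: GI50, concentration required for 50% inhibition of growth. Definition used: TGI = concentration required for complete inhibition of growth.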

Legend:
Experiment in all cases: DTP human tumour cell line panel, 48 h
NCI-H522 lung = system: NCI-H522 lung
NCI-H226 lung = system: NCI-H226 lung
A498 renal = system: A498 renal
LOX IMVI melanoma = system: LOX IMVI melanoma
RPMI-8226 leukemia = system: RPMI-8226 leukemia
MDA-MB-231 breast = system: MDA-MB-231 breast
SF-295 CNS = system: SF-295 CNS
HT29 colon = system: HT29 colon
SN12C renal = system: SN12C renal
RXF 393 renal = system: RXF 393 renal
NCI/ADR-RES ovarian = system: NCI/ADR-RES ovarian
786-0 renal = system: 786-0 renal
HCT-15 colon = system: HCT-15 colon
T-47D breast = system: T-47D breast
SW-620 colon = system: SW-620 colon
HL-60(TB) leukemia = system: HL-60(TB) leukemia
PC-3 prostate = system: PC-3 prostate
CCRF-CEM leukemia = system: CCRF-CEM leukemia
CAKI-1 renal = system: CAKI-1 renal
ACHN renal = system: ACHN renal
OVCAR-8 ovarian = system: OVCAR-8 ovarian
SK-MEL-2 melanoma = system: SK-MEL-2 melanoma
MCF7 breast = system: MCF7 breast
HS 578T breast = system: HS 578T breast
HCT-116 colon = system: HCT-116 colon
OVCAR-5 ovarian = system: OVCAR-5 ovarian
KM12 colon = system: KM12 colon
HOP-62 NSCLC = system: HOP-62 NSCLC
MALME-3M melanoma = system: MALME-3M melanoma
SK-MEL-5 melanoma = system: SK-MEL-5 melanoma
DU-145 prostate = system: DU-145 prostate
UACC-257 melanoma = system: UACC-257 melanoma
TK-10 renal = system: TK-10 renal
COLO 205 colon = system: COLO 205 colon
BT-549 breast = system: BT-549 breast
IGROV1 ovarian = system: IGROV1 ovarian
K-562 leukemia = system: K-562 leukemia
UACC-62 melanoma = system: UACC-62 melanoma
SF-539 CNS = system: SF-539 CNS
HOP-92 NSCLC = system: HOP-92 NSCLC
SK-MEL-28 melanoma = system: SK-MEL-28 melanoma
SNB-19 CNS = system: SNB-19 CNS
OVCAR-3 ovarian = system: OVCAR-3 ovarian
EKVX NSCLC = system: EKVX NSCLC
HCC-2998 colon = system: HCC-2998 colon
U251 CNS = system: U251 CNS
OVCAR-4 ovarian = system: OVCAR-4 ovarian
SF-268 CNS = system: SF-268 CNS
SK-OV-3 ovarian = system: SK-OV-3 ovarian
M14 melanoma = system: M14 melanoma
MDA-MB-435 = system: MDA-MB-435
A549 NSCLC = system: A549 NSCLC
NCI-H460 lung = system: NCI-H460 lung
SNB-75 CNS = system: SNB-75 CNS
UO-31 renal = system: UO-31 renal
MOLT-4 leukemia = system: MOLT-4 leukemia
NCI-H23 lung = system: NCI-H23 lung

Compound: C[n+]1c(-c2ccccc2)c2cc(N)ccc2c2ccccc21
- GI50 (NCI-H522 lung): 3.91 µM
- TGI (NCI-H522 lung): > 100 µM
- GI50 (NCI-H226 lung): 8.7 µM
- TGI (NCI-H226 lung): > 58.5 µM
- GI50 (A498 renal): 19.6 µM
- TGI (A498 renal): > 79.5 µM
- GI50 (LOX IMVI melanoma): 4.16 µM
- TGI (LOX IMVI melanoma): > 70.7 µM
- GI50 (RPMI-8226 leukemia): 1640 nM
- TGI (RPMI-8226 leukemia): 9.75 µM
- GI50 (MDA-MB-231 breast): 13.3 µM
- TGI (MDA-MB-231 breast): 60 µM
- GI50 (SF-295 CNS): 5.68 µM
- TGI (SF-295 CNS): > 78.1 µM
- GI50 (HT29 colon): 3.45 µM
- TGI (HT29 colon): 22.3 µM
- GI50 (SN12C renal): 2130 nM
- TGI (SN12C renal): 20.2 µM
- GI50 (RXF 393 renal): 26.3 µM
- TGI (RXF 393 renal): > 100 µM
- GI50 (NCI/ADR-RES ovarian): > 100 µM
- TGI (NCI/ADR-RES ovarian): > 100 µM
- GI50 (786-0 renal): 7.87 µM
- TGI (786-0 renal): > 100 µM
- GI50 (HCT-15 colon): > 100 µM
- TGI (HCT-15 colon): > 100 µM
- GI50 (T-47D breast): 2420 nM
- TGI (T-47D breast): 14.9 µM
- GI50 (SW-620 colon): 3.38 µM
- TGI (SW-620 colon): 50.5 µM
- GI50 (HL-60(TB) leukemia): 6.01 µM
- TGI (HL-60(TB) leukemia): 25.1 µM
- GI50 (PC-3 prostate): 4.45 µM
- TGI (PC-3 prostate): 31.8 µM
- GI50 (CCRF-CEM leukemia): 3.4 µM
- TGI (CCRF-CEM leukemia): 29.5 µM
- GI50 (CAKI-1 renal): > 59.8 µM
- TGI (CAKI-1 renal): > 100 µM
- GI50 (ACHN renal): > 63.7 µM
- TGI (ACHN renal): > 100 µM
- GI50 (OVCAR-8 ovarian): 12.4 µM
- TGI (OVCAR-8 ovarian): > 100 µM
- GI50 (SK-MEL-2 melanoma): 6.08 µM
- TGI (SK-MEL-2 melanoma): 32.9 µM
- GI50 (MCF7 breast): 2430 nM
- TGI (MCF7 breast): 17.9 µM
- GI50 (HS 578T breast): 2760 nM
- TGI (HS 578T breast): 12.3 µM
- GI50 (HCT-116 colon): 2750 nM
- TGI (HCT-116 colon): 44.6 µM
- GI50 (OVCAR-5 ovarian): 25.4 µM
- TGI (OVCAR-5 ovarian): > 100 µM
- GI50 (KM12 colon): 2870 nM
- TGI (KM12 colon): 14.8 µM
- GI50 (HOP-62 NSCLC): 7.13 µM
- TGI (HOP-62 NSCLC): 38.2 µM
- GI50 (MALME-3M melanoma): 1980 nM
- TGI (MALME-3M melanoma): 6.63 µM
- GI50 (SK-MEL-5 melanoma): 2110 nM
- TGI (SK-MEL-5 melanoma): 6.5 µM
- GI50 (DU-145 prostate): 4.12 µM
- TGI (DU-145 prostate): 57.3 µM
- GI50 (UACC-257 melanoma): 4.73 µM
- TGI (UACC-257 melanoma): > 100 µM
- GI50 (TK-10 renal): 8.69 µM
- TGI (TK-10 renal): > 59.5 µM
- GI50 (COLO 205 colon): 1970 nM
- TGI (COLO 205 colon): 6 µM
- GI50 (BT-549 breast): 2440 nM
- TGI (BT-549 breast): 16.7 µM
- GI50 (IGROV1 ovarian): 5.78 µM
- TGI (IGROV1 ovarian): > 44.2 µM
- GI50 (K-562 leukemia): 2510 nM
- TGI (K-562 leukemia): 28.4 µM
- GI50 (UACC-62 melanoma): 2000 nM
- TGI (UACC-62 melanoma): 5.03 µM
- GI50 (SF-539 CNS): 3.49 µM
- TGI (SF-539 CNS): 15.5 µM
- GI50 (HOP-92 NSCLC): 2570 nM
- TGI (HOP-92 NSCLC): 20 µM
- GI50 (SK-MEL-28 melanoma): 2190 nM
- TGI (SK-MEL-28 melanoma): 4.95 µM
- GI50 (SNB-19 CNS): 2090 nM
- TGI (SNB-19 CNS): 20.6 µM
- GI50 (OVCAR-3 ovarian): 3.48 µM
- TGI (OVCAR-3 ovarian): 22.2 µM
- GI50 (EKVX NSCLC): 7.97 µM
- TGI (EKVX NSCLC): > 100 µM
- GI50 (HCC-2998 colon): 2000 nM
- TGI (HCC-2998 colon): 7.97 µM
- GI50 (U251 CNS): 1390 nM
- TGI (U251 CNS): > 44.3 µM
- GI50 (OVCAR-4 ovarian): 2840 nM
- TGI (OVCAR-4 ovarian): 16 µM
- GI50 (SF-268 CNS): 534 nM
- TGI (SF-268 CNS): 7.07 µM
- GI50 (SK-OV-3 ovarian): 11.7 µM
- TGI (SK-OV-3 ovarian): > 91.9 µM
- GI50 (M14 melanoma): 8.94 µM
- TGI (M14 melanoma): 32.7 µM
- GI50 (MDA-MB-435): 3.22 µM
- TGI (MDA-MB-435): 14.2 µM
- GI50 (A549 NSCLC): 5.1 µM
- TGI (A549 NSCLC): > 47.7 µM
- GI50 (NCI-H460 lung): 3.2 µM
- TGI (NCI-H460 lung): 26.4 µM
- GI50 (SNB-75 CNS): 1280 nM
- TGI (SNB-75 CNS): 3.07 µM
- GI50 (UO-31 renal): > 83.8 µM
- TGI (UO-31 renal): > 100 µM
- GI50 (MOLT-4 leukemia): 1990 nM
- TGI (MOLT-4 leukemia): 20.5 µM
- GI50 (NCI-H23 lung): 2280 nM
- TGI (NCI-H23 lung): 12.2 µM
